# According to PubChem BioAssay (NCI):
#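 A five-concentration, 48-hour dose response in 96-well plates underlies each endpoint, interpolated linearly between surrounding concentrations. The concentration for 50% growth inhibition is given as GI50. TGI: total growth inhibition.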 *1 amine or outer side, *2 acyl side, *3 side chain or, on linkers, in order; H or OH if unused. Where a SMILES comes first, the peptide text is derived from it. [ ]: non-standard residue; d: D form. The star is where a group is joined. ξ: configuration not given here. X11 = CCC(=O)CC(O)CC(C)CC(N[*:1])C(=O)[*:2]; ξLeu(3ξ-OH) = CC(C)C(O)C(N)C(=O)O; ξPro(4ξ-Me) = CC1CNC(C(=O)O)C1; X10 = CCC(C)/C=C/C(=O)*; Aib = CC(C)(N)C(=O)O; X12 = CC(CN(C)C)N*; βAla = NCCC(=O)O
# Columns and labels:
# Assay in all cases: NCI anticancer screen, dose series, 48 h
# RPMI-8226 leukemia = tested on: RPMI-8226 leukemia
# NCI-H226 lung = tested on: NCI-H226 lung
# CCRF-CEM leukemia = tested on: CCRF-CEM leukemia
# MOLT-4 leukemia = tested on: MOLT-4 leukemia
# SK-OV-3 ovarian = tested on: SK-OV-3 ovarian
# A498 renal = tested on: A498 renal
# SF-268 CNS = tested on: SF-268 CNS
# CAKI-1 renal = tested on: CAKI-1 renal
# OVCAR-3 ovarian = tested on: OVCAR-3 ovarian
# DU-145 prostate = tested on: DU-145 prostate
# RXF 393 renal = tested on: RXF 393 renal
# ACHN renal = tested on: ACHN renal
# UACC-257 melanoma = tested on: UACC-257 melanoma
# OVCAR-5 ovarian = tested on: OVCAR-5 ovarian
# HOP-62 NSCLC = tested on: HOP-62 NSCLC
# MDA-MB-435 = tested on: MDA-MB-435
# TK-10 renal = tested on: TK-10 renal
# HL-60(TB) leukemia = tested on: HL-60(TB) leukemia
# NCI-H23 lung = tested on: NCI-H23 lung
# HOP-92 NSCLC = tested on: HOP-92 NSCLC
# BT-549 breast = tested on: BT-549 breast
# KM12 colon = tested on: KM12 colon
# SR leukemia = tested on: SR leukemia
# SK-MEL-28 melanoma = tested on: SK-MEL-28 melanoma
# UO-31 renal = tested on: UO-31 renal
# SNB-75 CNS = tested on: SNB-75 CNS
# SK-MEL-2 melanoma = tested on: SK-MEL-2 melanoma
# SW-620 colon = tested on: SW-620 colon
# HCC-2998 colon = tested on: HCC-2998 colon
# IGROV1 ovarian = tested on: IGROV1 ovarian
# A549 NSCLC = tested on: A549 NSCLC
# MALME-3M melanoma = tested on: MALME-3M melanoma
# SF-539 CNS = tested on: SF-539 CNS
# SNB-19 CNS = tested on: SNB-19 CNS
# MDA-MB-231 breast = tested on: MDA-MB-231 breast
# HT29 colon = tested on: HT29 colon
# 786-0 renal = tested on: 786-0 renal
# NCI/ADR-RES ovarian = tested on: NCI/ADR-RES ovarian
# MCF7 breast = tested on: MCF7 breast
# OVCAR-4 ovarian = tested on: OVCAR-4 ovarian
# NCI-H460 lung = tested on: NCI-H460 lung
# HCT-116 colon = tested on: HCT-116 colon
# PC-3 prostate = tested on: PC-3 prostate
# SK-MEL-5 melanoma = tested on: SK-MEL-5 melanoma
# UACC-62 melanoma = tested on: UACC-62 melanoma
# U251 CNS = tested on: U251 CNS
# M14 melanoma = tested on: M14 melanoma
# SN12C renal = tested on: SN12C renal
# NCI-H522 lung = tested on: NCI-H522 lung
# HS 578T breast = tested on: HS 578T breast
# HCT-15 colon = tested on: HCT-15 colon
# K-562 leukemia = tested on: K-562 leukemia
# LOX IMVI melanoma = tested on: LOX IMVI melanoma
# EKVX NSCLC = tested on: EKVX NSCLC
# COLO 205 colon = tested on: COLO 205 colon
# SF-295 CNS = tested on: SF-295 CNS
# OVCAR-8 ovarian = tested on: OVCAR-8 ovarian
structure (smiles),measurement,setting,value
CC1(C)CC[C@]2(CO)CC[C@]3(C)C(=CC[C@@H]4[C@@]5(C)CC[C@H](NCO)C(C)(C)[C@@H]5CC[C@]43C)[C@@H]2C1,GI50,RPMI-8226 leukemia,1750 nM
same,TGI,RPMI-8226 leukemia,4570 nM
same,GI50,NCI-H226 lung,2260 nM
same,TGI,NCI-H226 lung,5730 nM
same,GI50,CCRF-CEM leukemia,2040 nM
same,TGI,CCRF-CEM leukemia,5940 nM
same,GI50,MOLT-4 leukemia,1910 nM
same,TGI,MOLT-4 leukemia,5100 nM
same,GI50,SK-OV-3 ovarian,3290 nM
same,TGI,SK-OV-3 ovarian,9060 nM
same,GI50,A498 renal,1380 nM
same,TGI,A498 renal,2830 nM
same,GI50,SF-268 CNS,2390 nM
same,TGI,SF-268 CNS,6220 nM
same,GI50,CAKI-1 renal,1850 nM
same,TGI,CAKI-1 renal,3520 nM
Cl.Fc1c[c-]c(-c2ccccn2)c(F)c1.[Pt].c1ccc([PH+](c2ccccc2)c2ccccc2[PH+](c2ccccc2)c2ccccc2)cc1,GI50,OVCAR-3 ovarian,62.9 nM
same,TGI,OVCAR-3 ovarian,211 nM
same,GI50,DU-145 prostate,67.7 nM
same,TGI,DU-145 prostate,334 nM
same,GI50,CCRF-CEM leukemia,78 nM
same,TGI,CCRF-CEM leukemia,1090 nM
same,GI50,RXF 393 renal,137 nM
same,TGI,RXF 393 renal,296 nM
same,GI50,SK-OV-3 ovarian,88.3 nM
same,TGI,SK-OV-3 ovarian,640 nM
same,GI50,ACHN renal,157 nM
same,TGI,ACHN renal,460 nM
same,GI50,UACC-257 melanoma,107 nM
same,TGI,UACC-257 melanoma,698 nM
same,GI50,A498 renal,49.3 nM
same,TGI,A498 renal,215 nM
same,GI50,OVCAR-5 ovarian,140 nM
same,TGI,OVCAR-5 ovarian,415 nM
same,GI50,HOP-62 NSCLC,65.5 nM
same,TGI,HOP-62 NSCLC,320 nM
same,GI50,MDA-MB-435,82.5 nM
same,TGI,MDA-MB-435,268 nM
same,GI50,TK-10 renal,141 nM
same,TGI,TK-10 renal,689 nM
same,GI50,HL-60(TB) leukemia,39.5 nM
same,TGI,HL-60(TB) leukemia,321 nM
CCC(=O)CC(O)CC(C)CC(NC(=O)C1CC(C)CN1C(=O)/C=C/C(C)CC)C(=O)NC(C(=O)NC(C)(C)C(=O)NC(CC(C)C)C(=O)NC(CC(C)C)C(=O)NC(C)(C)C(=O)NC(C)(C)C(=O)NCCC(=O)NC(C)CN(C)C)C(O)C(C)C (stereo unspecified) (X10-[ξPro(4ξ-Me)][X11][ξLeu(3ξ-OH)][Aib]LL[Aib][Aib][βAla]-X12; configuration not given here),TGI,NCI-H23 lung,7700 nM
same,TGI,NCI-H226 lung,3620 nM
same,TGI,HOP-92 NSCLC,1090 nM
same,TGI,UACC-257 melanoma,17000 nM
same,TGI,BT-549 breast,11300 nM
Nc1n[nH]c2ccc([C@H]3[C@@H]4C5CCC(C5)[C@@H]4c4c(ccc5[nH]ncc45)N3S(=O)(=O)C3CC3)cc12 (stereo partly specified),GI50,KM12 colon,199 nM
same,TGI,KM12 colon,6320 nM
same,GI50,SR leukemia,150 nM
same,GI50,SK-MEL-28 melanoma,2000 nM
same,TGI,SK-MEL-28 melanoma,26000 nM
same,GI50,UO-31 renal,298 nM
same,TGI,UO-31 renal,29200 nM
same,GI50,SNB-75 CNS,138 nM
same,TGI,SNB-75 CNS,2420 nM
same,GI50,SK-MEL-2 melanoma,343 nM
same,TGI,SK-MEL-2 melanoma,14500 nM
same,GI50,RPMI-8226 leukemia,176 nM
same,TGI,RPMI-8226 leukemia,7460 nM
same,GI50,OVCAR-3 ovarian,181 nM
same,TGI,OVCAR-3 ovarian,7160 nM
same,GI50,DU-145 prostate,212 nM
same,TGI,DU-145 prostate,26700 nM
same,GI50,SW-620 colon,203 nM
same,TGI,SW-620 colon,> 33700 nM
same,GI50,NCI-H23 lung,225 nM
same,TGI,NCI-H23 lung,9310 nM
same,GI50,HCC-2998 colon,199 nM
same,TGI,HCC-2998 colon,8420 nM
same,GI50,NCI-H226 lung,441 nM
same,TGI,NCI-H226 lung,10100 nM
same,GI50,HOP-92 NSCLC,422 nM
same,TGI,HOP-92 NSCLC,11100 nM
same,GI50,CCRF-CEM leukemia,168 nM
same,TGI,CCRF-CEM leukemia,> 21300 nM
same,GI50,IGROV1 ovarian,269 nM
same,TGI,IGROV1 ovarian,> 38700 nM
same,GI50,A549 NSCLC,237 nM
same,TGI,A549 NSCLC,> 25600 nM
same,GI50,MALME-3M melanoma,326 nM
same,TGI,MALME-3M melanoma,40900 nM
same,GI50,SF-539 CNS,135 nM
same,TGI,SF-539 CNS,484 nM
same,GI50,SNB-19 CNS,210 nM
same,TGI,SNB-19 CNS,> 38300 nM
same,GI50,MDA-MB-231 breast,322 nM
same,TGI,MDA-MB-231 breast,12400 nM
same,GI50,HT29 colon,171 nM
same,TGI,HT29 colon,8520 nM
same,GI50,786-0 renal,366 nM
same,TGI,786-0 renal,22300 nM
same,GI50,NCI/ADR-RES ovarian,231 nM
same,TGI,NCI/ADR-RES ovarian,> 50000 nM
same,GI50,MCF7 breast,200 nM
same,TGI,MCF7 breast,> 35900 nM
same,GI50,OVCAR-4 ovarian,2630 nM
same,TGI,OVCAR-4 ovarian,> 50000 nM
same,GI50,NCI-H460 lung,181 nM
same,TGI,NCI-H460 lung,8380 nM
same,GI50,HCT-116 colon,195 nM
same,TGI,HCT-116 colon,> 9990 nM
same,GI50,MOLT-4 leukemia,184 nM
same,GI50,SK-OV-3 ovarian,5590 nM
same,TGI,SK-OV-3 ovarian,38800 nM
same,GI50,ACHN renal,346 nM
same,TGI,ACHN renal,22500 nM
same,GI50,UACC-257 melanoma,8040 nM
same,TGI,UACC-257 melanoma,> 47500 nM
same,GI50,PC-3 prostate,185 nM
same,TGI,PC-3 prostate,9850 nM
same,GI50,SK-MEL-5 melanoma,251 nM
same,TGI,SK-MEL-5 melanoma,1290 nM
same,GI50,A498 renal,108 nM
same,TGI,A498 renal,384 nM
same,GI50,OVCAR-5 ovarian,272 nM
same,TGI,OVCAR-5 ovarian,26100 nM
same,GI50,UACC-62 melanoma,137 nM
same,TGI,UACC-62 melanoma,5540 nM
same,GI50,U251 CNS,208 nM
same,TGI,U251 CNS,17500 nM
same,GI50,M14 melanoma,146 nM
same,TGI,M14 melanoma,15100 nM
same,GI50,SN12C renal,272 nM
same,TGI,SN12C renal,> 50000 nM
same,GI50,HOP-62 NSCLC,335 nM
same,TGI,HOP-62 NSCLC,20700 nM
same,GI50,SF-268 CNS,618 nM
same,TGI,SF-268 CNS,14000 nM
same,GI50,NCI-H522 lung,183 nM
same,TGI,NCI-H522 lung,2560 nM
same,GI50,HS 578T breast,170 nM
same,TGI,HS 578T breast,3310 nM
same,GI50,HCT-15 colon,198 nM
same,TGI,HCT-15 colon,> 28800 nM
same,GI50,BT-549 breast,340 nM
same,TGI,BT-549 breast,5730 nM
same,GI50,MDA-MB-435,141 nM
same,TGI,MDA-MB-435,1350 nM
same,GI50,K-562 leukemia,115 nM
same,GI50,LOX IMVI melanoma,303 nM
same,TGI,LOX IMVI melanoma,6450 nM
same,GI50,EKVX NSCLC,264 nM
same,TGI,EKVX NSCLC,> 45400 nM
same,GI50,COLO 205 colon,193 nM
same,TGI,COLO 205 colon,6310 nM
same,GI50,TK-10 renal,3980 nM
same,TGI,TK-10 renal,36400 nM
same,GI50,CAKI-1 renal,156 nM
same,TGI,CAKI-1 renal,3420 nM
same,GI50,SF-295 CNS,136 nM
same,TGI,SF-295 CNS,1320 nM
same,GI50,OVCAR-8 ovarian,213 nM
same,TGI,OVCAR-8 ovarian,> 41100 nM
same,GI50,HL-60(TB) leukemia,120 nM
same,TGI,HL-60(TB) leukemia,996 nM
